From US8778935B2 (Centro Nacional de Investigaciones Oncologicas (CNIO), priority 2009, dated 2014)
Read-outs that look alike come from different tables or passages of the source.

Biological target: T1, PI3K (p110α/p85α) (Homo sapiens, UniProt P42336)
T1 construct: purchased Carna Biosciences 07CBS-0402A
Assay: PI3K Activity Assay (ADP Hunter Plus)
Format: biochemical
Protocol: The kinase activity was measured by using the commercial ADP Hunter™ Plus assay available from DiscoveRx (#33-016), which is a homogeneous assay to measure the accumulation of ADP, a universal product of kinase activity. […] Reaction was carried out for 1 hour at 25° C. Reagent A and B were sequentially added to the wells and plates were incubated for 30 min at 37° C. […] Values were normalized against the control activity included for each enzyme (i.e., 100% PI3 kinase activity, without compound). These values were plot against the inhibitor concentration and were fit to a sigmoid dose-response curve by using the Graphad software.

[1] = quantitative results, read-out: PI3Kα IC50
[2] = semi-quantitative results, read-out: PI3Kα IC50 (semi-quantitative class)
[3] = quantitative results of Table 4, read-out: PI3Kα IC50

T1 sequence (P42336 whole entry): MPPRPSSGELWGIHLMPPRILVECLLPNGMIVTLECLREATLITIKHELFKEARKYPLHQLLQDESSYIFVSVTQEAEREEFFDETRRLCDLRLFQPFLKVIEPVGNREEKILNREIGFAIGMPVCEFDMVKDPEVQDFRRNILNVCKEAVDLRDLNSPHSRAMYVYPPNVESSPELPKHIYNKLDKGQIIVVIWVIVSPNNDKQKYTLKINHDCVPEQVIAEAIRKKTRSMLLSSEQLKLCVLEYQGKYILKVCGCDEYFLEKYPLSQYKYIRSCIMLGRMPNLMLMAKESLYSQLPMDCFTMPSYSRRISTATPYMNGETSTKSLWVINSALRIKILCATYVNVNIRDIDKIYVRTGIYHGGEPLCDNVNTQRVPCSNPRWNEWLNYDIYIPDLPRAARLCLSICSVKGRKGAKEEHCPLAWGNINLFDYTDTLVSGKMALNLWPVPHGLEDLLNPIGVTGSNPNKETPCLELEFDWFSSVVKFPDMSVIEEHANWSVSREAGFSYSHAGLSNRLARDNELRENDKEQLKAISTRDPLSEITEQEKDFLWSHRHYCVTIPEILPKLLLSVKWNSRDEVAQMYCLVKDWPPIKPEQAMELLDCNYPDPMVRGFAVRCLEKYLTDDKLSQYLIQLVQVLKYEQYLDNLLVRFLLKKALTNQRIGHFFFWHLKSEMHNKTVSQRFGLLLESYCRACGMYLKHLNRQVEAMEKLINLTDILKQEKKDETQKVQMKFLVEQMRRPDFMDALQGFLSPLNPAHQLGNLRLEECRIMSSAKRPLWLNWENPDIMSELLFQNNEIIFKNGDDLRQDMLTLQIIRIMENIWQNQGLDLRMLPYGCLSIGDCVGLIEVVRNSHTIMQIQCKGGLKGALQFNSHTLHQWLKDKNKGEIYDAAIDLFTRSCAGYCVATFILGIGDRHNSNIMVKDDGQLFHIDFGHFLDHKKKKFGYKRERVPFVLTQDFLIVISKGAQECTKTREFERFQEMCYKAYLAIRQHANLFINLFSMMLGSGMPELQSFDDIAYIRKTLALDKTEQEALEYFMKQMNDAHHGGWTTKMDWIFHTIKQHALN
T1 sequence (P27986 whole entry partner): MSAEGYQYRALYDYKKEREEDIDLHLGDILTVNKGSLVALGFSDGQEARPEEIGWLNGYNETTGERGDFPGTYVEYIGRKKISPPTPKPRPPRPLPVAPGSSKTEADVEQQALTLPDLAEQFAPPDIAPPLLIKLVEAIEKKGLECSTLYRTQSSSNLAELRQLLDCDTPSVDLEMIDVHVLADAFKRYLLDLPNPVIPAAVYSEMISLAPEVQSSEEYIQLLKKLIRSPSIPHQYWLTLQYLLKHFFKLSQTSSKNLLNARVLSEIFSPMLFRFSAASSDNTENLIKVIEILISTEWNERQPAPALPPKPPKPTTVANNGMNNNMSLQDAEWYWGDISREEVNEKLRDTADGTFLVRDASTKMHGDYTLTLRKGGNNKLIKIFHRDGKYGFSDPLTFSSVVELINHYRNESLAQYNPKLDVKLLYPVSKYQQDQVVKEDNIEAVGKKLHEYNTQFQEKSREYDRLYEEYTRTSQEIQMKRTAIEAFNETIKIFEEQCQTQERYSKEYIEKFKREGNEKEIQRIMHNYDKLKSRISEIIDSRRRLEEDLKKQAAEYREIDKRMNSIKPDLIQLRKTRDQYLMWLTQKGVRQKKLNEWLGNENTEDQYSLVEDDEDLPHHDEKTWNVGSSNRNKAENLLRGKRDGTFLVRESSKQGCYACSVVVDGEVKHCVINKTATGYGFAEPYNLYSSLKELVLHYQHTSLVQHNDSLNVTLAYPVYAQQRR

Q: Which IC50 [1] does the source give for `O=C(O)c1cn2cc(-c3cccc(O)c3)nc(N3CCOCC3)c2n1` [2-02, 6-(3-hydroxyphenyl)-8-morpholinoimidazo[1,2-a]pyrazine-2-carboxylic acid] here?
A: 19 µM

Q: For `O=Cc1cn2cc(-c3cccc(O)c3)nc(N3CCOCC3)c2n1` [2-03, 6-(3-hydroxyphenyl)-8-morpholinoimidazo[1,2-a]pyrazine-2-carbaldehyde], which IC50 [1] is on record?
A: 10 µM

Q: Which results are given for `OCc1cn2cc(-c3cccc(O)c3)nc(N3CCOCC3)c2n1` [2-04, 3-(2-(hydroxymethyl)-8-morpholinoimidazo[1,2-a]pyrazin-6-yl)phenol]?
A: IC50 [1]: 0.639 µM; IC50 [2]: 0.1 to 1 µM

Q: With `CC(C)(C)OC(=O)N1CCN(Cc2cn3cc(-c4cccc(O)c4)nc(N4CCOCC4)c3n2)CC1` [2-05, tert-butyl 4-((6-(3-hydroxyphenyl)-8-morpholinoimidazo[1,2-a]pyrazin-2-yl)methyl)-piperazine-1-carboxylate] as the compound, how does the IC50 [1] read?
A: 0.476 µM

Q: `CC(=O)N1CCN(Cc2cn3cc(-c4cccc(O)c4)nc(N4CCOCC4)c3n2)CC1` [2-06, 1-(4-((6-(3-hydroxyphenyl)-8-morpholinoimidazo[1,2-a]pyrazin-2-yl)methyl)-piperazin-1-yl)ethanone] was tested. Which IC50 [1] did it give?
A: 0.451 µM

Q: What about the IC50 [2] of the same compound?
A: 0.1 to 1 µM

Q: Which IC50 [1] does the source give for `CN1CCN(Cc2cn3cc(-c4cccc(O)c4)nc(N4CCOCC4)c3n2)CC1` [2-07, 3-(2a-((4-methylpiperazin-1-yl)methyl)-8-morpholinoimidazo[1,2-a]pyrazin-6-yl)phenol] here?
A: 27 µM

Q: For `O=C1CN(Cc2cn3cc(-c4cccc(O)c4)nc(N4CCOCC4)c3n2)CCN1` [2-08, 4-((6-(3-hydroxyphenyl)-8-morpholinoimidazo[1,2-a]pyrazin-2-yl)methyl)piperazin-2-one], which IC50 [1] is on record?
A: 0.54 µM

Q: What about the IC50 [2] of the same compound?
A: 0.1 to 1 µM

Q: What does the source list for `Oc1cccc(-c2cn3cc(CN4CCOCC4)nc3c(N3CCOCC3)n2)c1` [2-09, 3-(8-morpholino-2-(morpholinomethyl)imidazo[1,2-a]pyrazin-6-yl)phenol]?
A: IC50 [1]: 0.444 µM; IC50 [2]: 0.1 to 1 µM

Q: `CS(=O)(=O)N1CCN(C(=O)c2cn3cc(-c4cccc(O)c4)nc(N4CCOCC4)c3n2)CC1` [2-11, (6-(3-hydroxyphenyl)-8-morpholinoimidazo[1,2-a]pyrazin-2-yl)(4-sulfonylmethyl-piperazin-1-yl)methanone] was tested. Which IC50 [1] did it give?
A: 0.044 µM

Q: For `Oc1cccc(-c2cn3cc(C4CC4)nc3c(N3CCOCC3)n2)c1` [2-14, 3-(2-cyclopropyl-8-morpholinoimidazo[1,2-a]pyrazin-6-yl)phenol], which IC50 [1] is on record?
A: 0.34 µM

Q: What about the IC50 [2] of the same compound?
A: 0.1 to 1 µM

Q: Which IC50 [1] does the source give for `CN1CCN(C(=O)c2cn3cc(-c4cccc5[nH]ncc45)nc(N4CCOCC4)c3n2)CC1` [2-15, (6-(1H-indazol-4-yl)-8-morpholinoimidazo[1,2-a]pyrazin-2-yl)(4-methylpiperazin-1-yl)methanone] here?
A: 0.741 µM

Q: And the IC50 [2]?
A: 0.1 to 1 µM

Q: With `c1cc(-c2cn3cc(C4CC4)nc3c(N3CCOCC3)n2)c2cn[nH]c2c1` [2-19, 2-cyclopropyl-6-(1H-indazol-4-yl)-8-morpholinoimidazo[1,2-a]pyrazine] as the compound, how does the IC50 [1] read?
A: 0.438 µM

Q: How did the IC50 [1] turn out when `FC(F)(F)c1cn2cc(-c3cccc4[nH]ncc34)nc(N3CCOCC3)c2n1` [2-20, 2-(trifluoromethyl)-6-(1H-indazol-4-yl)-8-morpholinoimidazo[1,2-a]pyrazine] was run?
A: 1.8 µM

Q: What does the source list for `N#Cc1cn2cc(-c3cccc4[nH]ncc34)nc(N3CCOCC3)c2n1` [2-22, 6-(1H-indazol-4-yl)-8-morpholinoimidazo[1,2-a]pyrazine-2-carbonitrile]?
A: IC50 [1]: 0.618 µM; IC50 [2]: 0.1 to 1 µM

Q: What does the source list for `Cc1cn2cc(-c3cccc(O)c3)nc(N3CCOCC3)c2n1` [2-23, 3-(2-methyl-8-morpholinoimidazo[1,2-a]pyrazin-6-yl)phenol]?
A: IC50 [1]: 0.096 µM; IC50 [2]: < 0.1 µM

Q: What does the source list for `Cc1cn2cc(-c3cccc4[nH]ncc34)nc(N3CCOCC3)c2n1` [2-24, 6-(1H-indazol-4-yl)-2-methyl-8-morpholinoimidazo[1,2-a]pyrazine]?
A: IC50 [1]: 2.6 µM; IC50 [2]: > 1 µM

Q: `Cc1cn2cc(-c3cccnc3)nc(N3CCOCC3)c2n1` [2-26, 2-methyl-8-morpholino-6-(pyridin-3-yl)imidazo[1,2-a]pyrazine] was tested. Which IC50 [1] did it give?
A: 10 µM

Q: Which IC50 [1] does the source give for `COc1cncc(-c2cn3cc(C)nc3c(N3CCOCC3)n2)c1` [2-27, 6-(5-methoxypyridin-3-yl)-2-methyl-8-morpholinoimidazo[1,2-a]pyrazine] here?
A: 3.9 µM

Q: What about the IC50 [2] of the same compound?
A: > 1 µM

Q: `Cc1cn2cc(-c3cccc(NS(C)(=O)=O)c3)nc(N3CCOCC3)c2n1` [2-28] was tested. Which IC50 [1] did it give?
A: 50 µM

Q: For `CNC(=O)Nc1ccc(-c2cn3cc(C)nc3c(N3CCOCC3)n2)cc1` [2-29, 1-methyl-3-(4-(2-methyl-8-morpholinoimidazo[1,2-a]pyrazin-6-yl)phenyl)urea], which IC50 [1] is on record?
A: 3 µM

Q: For `Cc1cn2cc(-c3cncc(O)c3)nc(N3CCOCC3)c2n1` [2-30, 5-(2-methyl-8-morpholinoimidazo[1,2-a]pyrazin-6-yl)pyridin-3-ol], which IC50 [1] is on record?
A: 0.235 µM

Q: And the IC50 [2]?
A: 0.1 to 1 µM

Q: Which IC50 [1] does the source give for `Cc1cn2cc(-c3ccncc3)nc(N3CCOCC3)c2n1` [2-31, 2-methyl-8-morpholino-6-(pyridin-4-yl)imidazo[1,2-a]pyrazine] here?
A: 10 µM

Q: Which IC50 [2] does the source give for `CN1CCN(c2cnc3c(N4CCOCC4)nc(-c4cccc(O)c4)cn23)CC1` [2-37, 3-(3-(4-methylpiperazin-1-yl)-8-morpholinoimidazo[1,2-a]pyrazin-6-yl)phenol] here?
A: 0.1 to 1 µM

Q: With `CN1CCN(c2cnc3c(N4CCOCC4)nc(-c4cccc5[nH]ncc45)cn23)CC1` [2-38, 6-(1H-indazol-4-yl)-3-(4-methylpiperazin-1-yl)-8-morpholinoimidazo[1,2-a]-pyrazine] as the compound, how does the IC50 [2] read?
A: 0.1 to 1 µM

Q: How did the IC50 [2] turn out when `Oc1cccc(-c2cn3c(N4CCNCC4)cnc3c(N3CCOCC3)n2)c1` [2-40, 3-(8-morpholino-3-(piperazin-1-yl)imidazo[1,2-a]pyrazin-6-yl)phenol] was run?
A: 0.1 to 1 µM

Q: For `CS(=O)(=O)N1CCN(c2cnc3c(N4CCOCC4)nc(-c4cccc5[nH]ncc45)cn23)CC1` [2-41, 6-(1H-indazol-4-yl)-3-(4-sulfonylmethylpiperazin-1-yl)-8-morpholinoimidazo[1,2-a]pyrazine], which IC50 [2] is on record?
A: 0.1 to 1 µM

Q: Which IC50 [1] does the source give for `Cc1nc2c(N3CCOCC3)nc(-c3cccc4[nH]ncc34)cn2c1C1=CCNCC1` [2-44, 3-(1,2,3,6-tetrahydropyridin-4-yl)-6-(1H-indazol-4-yl)-2-methyl-8-morpholino-imidazo[1,2-a]pyrazine] here?
A: 0.731 µM

Q: What about the IC50 [2] of the same compound?
A: 0.1 to 1 µM

Q: For `Cc1cn2c(Cl)c(-c3cccc(O)c3)nc(N3CCOCC3)c2n1` [2-49, 3-(5-chloro-2-methyl-8-morpholinoimidazo[1,2-a]pyrazin-6-yl)phenol], which IC50 [2] is on record?
A: 0.1 to 1 µM

Q: Which IC50 [1] does the source give for `CCOC(=O)c1cn2cc(-c3cccc4[nH]ncc34)nc(N3CCOCC3)c2n1` [2-52, ethyl 6-(1H-indazol-4-yl)-8-morpholinoimidazo[1,2-a]pyrazine-2-carboxylate] here?
A: 0.676 µM

Q: For `Cc1cn2c(Cl)c(-c3cccc4[nH]ncc34)nc(N3CCOCC3)c2n1` [2-54, 5-chloro-6-(1H-indazol-4-yl)-2-methyl-8-morpholinoimidazo[1,2-a]pyrazine], which IC50 [1] is on record?
A: 0.266 µM

Q: And the IC50 [2]?
A: 0.1 to 1 µM

Q: Which IC50 [1] does the source give for `Cc1cn2c(Br)c(-c3cccc4[nH]ncc34)nc(N3CCOCC3)c2n1` [2-55, 5-bromo-6-(1H-indazol-4-yl)-2-methyl-8-morpholinoimidazo[1,2-a]pyrazine] here?
A: 12 µM

Q: With `Cc1cn2c(I)c(-c3cccnc3)nc(N3CCOCC3)c2n1` [2-56, 5-iodo-2-methyl-8-morpholino-6-(pyridin-3-yl)imidazo[1,2-a]pyrazine] as the compound, how does the IC50 [1] read?
A: 0.253 µM

Q: Which IC50 [1] does the source give for `Cc1nc2c(N3CCOCC3)nc(-c3cccc4[nH]ncc34)cn2c1C1CCNCC1` [2-57, 6-(1H-indazol-4-yl)-2-methyl-8-morpholino-3-(piperidin-4-yl)imidazo[1,2-a]-pyrazine] here?
A: 0.144 µM

Q: What about the IC50 [2] of the same compound?
A: 0.1 to 1 µM

Q: Which IC50 [2] does the source give for `Cc1nc2c(N3CCOCC3)nc(-c3cccc4[nH]ncc34)cn2c1C1CCN(C)CC1` [2-58, 6-(1H-indazol-4-yl)-2-methyl-3-(1-methylpiperidin-4-yl)-8-morpholinoimidazo[1,2-a]pyrazine] here?
A: 0.1 to 1 µM

Q: `CS(=O)(=O)N1CCN(Cc2cn3c(Cl)c(-c4cccc5[nH]ncc45)nc(N4CCOCC4)c3n2)CC1` [2-60, 5-chloro-6-(1H-indazol-4-yl)-8-morpholino-2-((4-sulfonylmethylpiperazin-1-yl)-methyl)imidazo[1,2-a]pyrazine] was tested. Which IC50 [2] did it give?
A: 0.1 to 1 µM

Q: Which IC50 [2] does the source give for `Cc1nc2c(N3CCOCC3)nc(-c3cccc4[nH]ncc34)cn2c1C(=O)NC1CCNCC1` [2-64, 6-(1H-indazol-4-yl)-2-methyl-8-morpholino-N-(piperidin-4-yl)imidazo[1,2-a]-pyrazine-3-carboxamide] here?
A: > 1 µM

Q: How did the IC50 [1] turn out when `CS(=O)(=O)N1CCN(Cc2cn3cc(-c4ccc(C(N)=O)cc4)nc(N4CCOCC4)c3n2)CC1` [2-68] was run?
A: 11 µM

Q: `CC(=O)Nc1ccc(-c2cn3cc(CN4CCN(S(C)(=O)=O)CC4)nc3c(N3CCOCC3)n2)cn1` [2-81] was tested. Which IC50 [1] did it give?
A: 0.21 µM

Q: How did the IC50 [1] turn out when `CS(=O)(=O)N1CCN(Cc2cn3cc(-c4cnc(N)c(C(F)(F)F)c4)nc(N4CCOCC4)c3n2)CC1` [2-83] was run?
A: 0.21 µM

Q: Which IC50 [3] does the source give for `CN(C)C(=O)c1cn2cc(-c3cccc4[nH]ncc34)nc(N3CCOCC3)c2n1` [2-86] here?
A: 0.891 µM

Q: For `O=C(c1cn2cc(-c3cccc4[nH]ncc34)nc(N3CCOCC3)c2n1)N1CCCC1` [2-87], which IC50 [3] is on record?
A: 0.355 µM

Q: For `CS(=O)(=O)N1CCN(Cc2cn3cc(-c4ccc(N)cc4)nc(N4CCOCC4)c3n2)CC1` [2-89], which IC50 [3] is on record?
A: 33 µM

Q: How did the IC50 [3] turn out when `CS(=O)(=O)N1CCN(Cc2cn3cc(-c4cn[nH]c4)nc(N4CCOCC4)c3n2)CC1` [2-90] was run?
A: 6 µM

Q: `NC(=O)c1cn2cc(-c3ccncc3)nc(N3CCOCC3)c2n1` [2-91] was tested. Which IC50 [3] did it give?
A: 3.9 µM

Q: `NC(=O)c1cn2cc(-c3cccc4[nH]ccc34)nc(N3CCOCC3)c2n1` [2-94] was tested. Which IC50 [3] did it give?
A: 0.944 µM

Q: With `NC(=O)c1cn2cc(-c3c(F)ccc4[nH]ccc34)nc(N3CCOCC3)c2n1` [2-95] as the compound, how does the IC50 [3] read?
A: 0.891 µM

Q: How did the IC50 [3] turn out when `CC(C)(C)OC(=O)N1CCC2(CCN(Cc3cn4cc(-c5cccc6[nH]ncc56)nc(N5CCOCC5)c4n3)CC2)C1` [2-97] was run?
A: 4.5 µM
